Literature values in patent US11123300B2, “Immediate release tablet of a benzothiophene compound” (Hexal AG, priority 2016, dated 2021).

O=c1ccc2ccc(OCCCCN3CCN(c4cccc5sccc45)CC3)cc2[nH]1 [brexpiprazole, 7-[4-[4-(1-Benzothiophen-4-yl)piperazin-1-yl]butoxy]quinolin-2(1H)-one]
solubility of brexpiprazole in water: 2.27 µg/mL
